The values that follow come from patent US7709471B2, “Compounds” (AstraZeneca AB, priority 2006, dated 2010).

As a reminder, the IC50 is the concentration that gives 50% inhibition.

Assay [1] concerns human colon tumour cell line HT29. Description: Cellular Assay (phosphohistone H3 Ser10 mitotic marker, HT29). Type of assay: cell-based. The conditions noted are these: HT-29, 24 h, HT29 cells, read-out: IC50 (cellular assay, phosphohistone H3).
Experimental: Chromosome condensation in mitosis is accompanied by phosphorylation of histone H3 on serine 10.
After 24 hours, cells were fixed in 3.7% (v/v) formaldehyde then permeabilised and blocked for 10 minutes in 100 μl 0.5% (v/v) Triton X-100, 1% (w/v) bovine serum albumin (BSA) in phosphate buffered saline (PBS). […] The raw assay data were analysed by non-linear regression analysis and used to determine an IC50 value for each compound.
For a further assay, the target named is recombinant Plk1 (Homo sapiens, UniProt P53350). Description: In Vitro Plk1 Enzyme Assay (SPA, GST-Cdc25C phosphorylation). Type of assay: biochemical. As to conditions: ATP 64 nM, 90 minutes, read-out: IC50 (Plk1 enzyme inhibition).
Chain of recombinant Plk1 (P53350 whole entry): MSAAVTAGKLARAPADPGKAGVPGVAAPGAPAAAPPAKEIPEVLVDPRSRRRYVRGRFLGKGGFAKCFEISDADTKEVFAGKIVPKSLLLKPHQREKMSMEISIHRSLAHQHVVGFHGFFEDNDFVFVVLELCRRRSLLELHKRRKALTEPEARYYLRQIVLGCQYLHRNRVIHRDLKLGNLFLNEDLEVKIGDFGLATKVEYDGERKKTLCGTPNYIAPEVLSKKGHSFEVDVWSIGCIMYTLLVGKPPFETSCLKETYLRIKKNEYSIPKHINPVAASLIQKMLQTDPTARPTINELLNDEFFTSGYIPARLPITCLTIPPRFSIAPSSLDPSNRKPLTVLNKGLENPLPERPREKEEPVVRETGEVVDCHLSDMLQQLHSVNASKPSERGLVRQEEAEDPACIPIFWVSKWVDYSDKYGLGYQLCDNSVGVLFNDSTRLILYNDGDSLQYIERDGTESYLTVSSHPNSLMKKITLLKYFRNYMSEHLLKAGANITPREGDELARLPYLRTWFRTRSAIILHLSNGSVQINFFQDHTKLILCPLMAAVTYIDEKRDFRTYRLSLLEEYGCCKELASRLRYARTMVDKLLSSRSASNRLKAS

Consider `COCCNS(=O)(=O)c1ccc(Nc2ncc3c(n2)N(C2CCCC2)CCC(=O)N3C)cc1` [Example 125, 4-[(6-cyclopentyl-2-methyl-3-oxo-2,6,8,10-tetrazabicyclo[5.4.0]undeca-8,10,12-trien-9-yl)amino]-N-(2-methoxyethyl)benzenesulfonamide], for which the IC50 in assay [1] was less than 30000 nM; at recombinant Plk1, less than 100000 nM.

Turning to `CC(=O)N1CCN(c2ccc(Nc3ncc4c(n3)N(C3CCCC3)CCC(=O)N4C)cc2)CC1` [Example 128, 9-[[4-(4-acetylpiperazin-1-yl)phenyl]amino]-6-cyclopentyl-2-methyl-2,6,8,10-tetrazabicyclo[5.4.0]undeca-8,10,12-trien-3-one], the IC50 in assay [1] is less than 30000 nM; at recombinant Plk1, less than 1000 nM.

In the case of `CN1C(=O)CCN(C2CCCC2)c2nc(Nc3ccc(Cl)c(CO)c3)ncc21` [Example 131, 9-[[4-chloro-3-(hydroxymethyl)phenyl]amino]-6-cyclopentyl-2-methyl-2,6,8,10-tetrazabicyclo[5.4.0]undeca-8,10,12-trien-3-one], the IC50 in assay [1] was less than 30000 nM; on recombinant Plk1, less than 1000 nM.

On to `CN1C(=O)CCN(C2CCCC2)c2nc(Nc3ccc4[nH]c(-c5cccnc5)nc4c3)ncc21` [Example 132, 6-cyclopentyl-2-methyl-9-[(2-pyridin-3-yl-1H-benzoimidazol-5-yl)amino]-2,6,8,10-tetrazabicyclo[5.4.0]undeca-8,10,12-trien-3-one], for which the IC50 in assay [1] is less than 30000 nM; at recombinant Plk1, less than 1000 nM.

On to `CN1C(=O)CCN(C2CCCC2)c2nc(Nc3ccc(CNC(=O)c4ccccn4)cc3)ncc21` [Example 133, N-[[4-[(6-cyclopentyl-2-methyl-3-oxo-2,6,8,10-tetrazabicyclo[5.4.0]undeca-8,10,12-trien-9-yl)amino]phenyl]methyl]pyridine-2-carboxamide], for which the IC50 in assay [1] is less than 30000 nM; at recombinant Plk1, less than 100000 nM.

On to `CN1C(=O)CCN(C2CCCC2)c2nc(Nc3ccc(OCCN4CCOCC4)cc3)ncc21` [Example 135, 6-cyclopentyl-2-methyl-9-[[4-(2-morpholin-4-ylethoxy)phenyl]amino]-2,6,8,10-tetrazabicyclo[5.4.0]undeca-8,10,12-trien-3-one], for which the IC50 was less than 1000 nM in assay [1] and less than 100000 nM at recombinant Plk1.

As to `COc1ccc(CCNC(C)=O)cc1Nc1ncc2c(n1)N(C1CCCC1)CCC(=O)N2C` [Example 138, N-[2-[3-[(6-cyclopentyl-2-methyl-3-oxo-2,6,8,10-tetrazabicyclo[5.4.0]undeca-8,10,12-trien-9-yl)amino]-4-methoxy-phenyl]ethyl]acetamide], the figures for the IC50 (in assay [1]; on recombinant Plk1) were less than 30000 nM and less than 1000 nM, respectively.

In the case of `CCc1ccccc1Nc1ncc2c(n1)N(C1CCCC1)CCC(=O)N2C` [Example 143, 6-cyclopentyl-9-[(2-ethylphenyl)amino]-2-methyl-2,6,8,10-tetrazabicyclo[5.4.0]undeca-8,10,12-trien-3-one], the IC50 in assay [1] was less than 30000 nM; at recombinant Plk1 it was less than 1000 nM.

For `Cc1ccc(Oc2ccccc2Nc2ncc3c(n2)N(C2CCCC2)CCC(=O)N3C)cc1` [Example 159, 6-cyclopentyl-2-methyl-9-[[2-(4-methylphenoxy)phenyl]amino]-2,6,8,10-tetrazabicyclo[5.4.0]undeca-8,10,12-trien-3-one], the figures for the IC50 (in assay [1]; on recombinant Plk1) were less than 30000 nM and less than 100000 nM, respectively.

Consider `CC(=O)c1cccc(Nc2ncc3c(n2)N(C2CCCC2)CCC(=O)N3C)c1` [Example 165, 9-[(3-acetylphenyl)amino]-6-cyclopentyl-2-methyl-2,6,8,10-tetrazabicyclo[5.4.0]undeca-8,10,12-trien-3-one], for which the IC50 in assay [1] is less than 30000 nM; at recombinant Plk1, less than 1000 nM.

Turning to `CN1C(=O)CCN(C2CCCC2)c2nc(Nc3cccc(S(N)(=O)=O)c3)ncc21` [Example 170, 3-[(6-cyclopentyl-2-methyl-3-oxo-2,6,8,10-tetrazabicyclo[5.4.0]undeca-8,10,12-trien-9-yl)amino]benzenesulfonamide], the half-maximal inhibitory concentration (IC50) in assay [1] was less than 30000 nM; at recombinant Plk1, less than 300 nM.

As to `CN1C(=O)CCN(C2CCCC2)c2nc(Nc3cccc(CO)c3)ncc21` [Example 173, 6-cyclopentyl-9-[[3-(hydroxymethyl)phenyl]amino]-2-methyl-2,6,8,10-tetrazabicyclo[5.4.0]undeca-8,10,12-trien-3-one], the figures for the IC50 (in assay [1]; on recombinant Plk1) were less than 30000 nM and less than 1000 nM, respectively.

For the compound `COc1ccc(NC(C)=O)cc1Nc1ncc2c(n1)N(C1CCCC1)CCC(=O)N2C` [Example 176, N-[3-[(6-cyclopentyl-2-methyl-3-oxo-2,6,8,10-tetrazabicyclo[5.4.0]undeca-8,10,12-trien-9-yl)amino]-4-methoxy-phenyl]acetamide], the IC50 in assay [1] is less than 1000 nM; on recombinant Plk1, less than 300 nM.

Turning to `CC(=O)Nc1cccc(Nc2ncc3c(n2)N(C2CCCC2)CCC(=O)N3C)c1` [Example 177, N-[3-[(6-cyclopentyl-2-methyl-3-oxo-2,6,8,10-tetrazabicyclo[5.4.0]undeca-8,10,12-trien-9-yl)amino]phenyl]acetamide], the IC50 in assay [1] is less than 30000 nM; on recombinant Plk1, less than 100000 nM.

As to `Cc1ccc(CO)cc1Nc1ncc2c(n1)N(C1CCCC1)CCC(=O)N2C` [Example 178, 6-cyclopentyl-9-[[5-(hydroxymethyl)-2-methyl-phenyl]amino]-2-methyl-2,6,8,10-tetrazabicyclo[5.4.0]undeca-8,10,12-trien-3-one], the IC50 is less than 30000 nM in assay [1] and less than 1000 nM at recombinant Plk1.

For the compound `CN1C(=O)CCN(C2CCCC2)c2nc(Nc3cccc(CCO)c3)ncc21` [Example 179, 6-cyclopentyl-9-[[3-(2-hydroxyethyl)phenyl]amino]-2-methyl-2,6,8,10-tetrazabicyclo[5.4.0]undeca-8,10,12-trien-3-one], the IC50 is less than 30000 nM in assay [1] and less than 1000 nM on recombinant Plk1.

For the compound `CN1C(=O)CCN(C2CCCC2)c2nc(Nc3cccc(OCCN4CCOCC4)c3)ncc21` [Example 180, 6-cyclopentyl-2-methyl-9-[[3-(2-morpholin-4-ylethoxy)phenyl]amino]-2,6,8,10-tetrazabicyclo[5.4.0]undeca-8,10,12-trien-3-one], the results for the IC50 (in assay [1]; on recombinant Plk1) were less than 30000 nM and less than 100000 nM, respectively.

For the compound `CN1C(=O)CCN(C2CCCC2)c2nc(Nc3ccc(C(=O)NCCN4CCOCC4)cc3Cl)ncc21` [Example 184, 3-chloro-4-[(6-cyclopentyl-2-methyl-3-oxo-2,6,8,10-tetrazabicyclo[5.4.0]undeca-8,10,12-trien-9-yl)amino]-N-(2-morpholin-4-ylethyl)benzamide], the IC50 (in assay [1]; on recombinant Plk1) was less than 1000 nM each time.

For the compound `CN1CCC(NC(=O)c2ccc(Nc3ncc4c(n3)N(C3CCCC3)CCC(=O)N4C)c(Cl)c2)CC1` [Example 185, 3-chloro-4-[(6-cyclopentyl-2-methyl-3-oxo-2,6,8,10-tetrazabicyclo[5.4.0]undeca-8,10,12-trien-9-yl)amino]-N-(1-methyl-4-piperidyl)benzamide], the IC50 (in assay [1]; on recombinant Plk1) was less than 300 nM in each case.

As to `CN1CCC(NC(=O)c2ccc(Nc3ncc4c(n3)N(C3CCCC3)CCC(=O)N4C)c(O)c2)CC1` [Example 186, 4-[(6-cyclopentyl-2-methyl-3-oxo-2,6,8,10-tetrazabicyclo[5.4.0]undeca-8,10,12-trien-9-yl)amino]-3-hydroxy-N-(1-methyl-4-piperidyl)benzamide], the IC50 is less than 30000 nM in assay [1] and less than 300 nM on recombinant Plk1.

`CN1CCC(NC(=O)c2c(F)cc(Nc3ncc4c(n3)N(C3CCCC3)CCC(=O)N4C)cc2F)CC1` [Example 187, 4-[(6-cyclopentyl-2-methyl-3-oxo-2,6,8,10-tetrazabicyclo[5.4.0]undeca-8,10,12-trien-9-yl)amino]-2,6-difluoro-N-(1-methyl-4-piperidyl)benzamide]: the IC50 is less than 30000 nM in assay [1] and less than 100000 nM at recombinant Plk1.

On to `CN1CCC(NC(=O)c2ccc(Nc3ncc4c(n3)N(C3CCCC3)CCC(=O)N4C)cc2F)CC1` [Example 189, 4-[(6-cyclopentyl-2-methyl-3-oxo-2,6,8,10-tetrazabicyclo[5.4.0]undeca-8,10,12-trien-9-yl)amino]-2-fluoro-N-(1-methyl-4-piperidyl)benzamide], for which the IC50 (in assay [1]; at recombinant Plk1) was less than 300 nM throughout.

Turning to `CN1C(=O)CCN(C2CCCC2)c2nc(Nc3ccc(C(=O)NCCN4CCOCC4)cc3)ncc21` [Example 191, 4-[(6-cyclopentyl-2-methyl-3-oxo-2,6,8,10-tetrazabicyclo[5.4.0]undeca-8,10,12-trien-9-yl)amino]-N-(2-morpholin-4-ylethyl)benzamide], the half-maximal inhibitory concentration (IC50) (in assay [1]; at recombinant Plk1) was less than 1000 nM each time.

`Cc1cc(C(=O)NC2CCN(C)CC2)ccc1Nc1ncc2c(n1)N(C1CCCC1)CCC(=O)N2C` [Example 193, 4-[(6-cyclopentyl-2-methyl-3-oxo-2,6,8,10-tetrazabicyclo[5.4.0]undeca-8,10,12-trien-9-yl)amino]-3-methyl-N-(1-methyl-4-piperidyl)benzamide]: the IC50 (in assay [1]; at recombinant Plk1) was less than 300 nM in each case.

With `CN1CCC(NC(=O)c2ccc(Nc3ncc4c(n3)N(C3CCCC3)CCC(=O)N4C)c(F)c2)CC1` [Example 194, 4-[(6-cyclopentyl-2-methyl-3-oxo-2,6,8,10-tetrazabicyclo[5.4.0]undeca-8,10,12-trien-9-yl)amino]-3-fluoro-N-(1-methyl-4-piperidyl)benzamide], the IC50 (in assay [1]; at recombinant Plk1) was less than 300 nM each time.

On to `COCCOc1cc(C(=O)NC2CCN(C)CC2)ccc1Nc1ncc2c(n1)N(C1CCCC1)CCC(=O)N2C` [Example 195, 4-[(6-cyclopentyl-2-methyl-3-oxo-2,6,8,10-tetrazabicyclo[5.4.0]undeca-8,10,12-trien-9-yl)amino]-3-(2-methoxyethoxy)-N-(1-methyl-4-piperidyl)benzamide], for which the values for the IC50 (in assay [1]; at recombinant Plk1) were less than 30000 nM and less than 1000 nM, respectively.

`CC(C)Oc1cc(C(=O)NC2CCN(C)CC2)ccc1Nc1ncc2c(n1)N(C1CCCC1)CCC(=O)N2C` [Example 197, 4-[(6-cyclopentyl-2-methyl-3-oxo-2,6,8,10-tetrazabicyclo[5.4.0]undeca-8,10,12-trien-9-yl)amino]-N-(1-methyl-4-piperidyl)-3-propan-2-yloxy-benzamide]: the IC50 (in assay [1]; on recombinant Plk1) was less than 1000 nM each time.
